From PubChem BioAssay AID2060497 (Molecular Pharmacology Branch, DTP, NCI, 2025)

System: 317291-083-R-J1-PDC complex spheroids, viability
Assay: Anticancer human tumor 317291-083-R-J1-PDC patient-derived soft tissue sarcoma cell line growth inhibition [GQUAD]
Settings: for IC50: curve of first compound; for viability, T/C: stronger effect = lower value
Procedure, shortened: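 Viability of tumor cells grown as complex spheroids with endothelial and stromal cells, exposed to drug combinations. Top concentration at or near clinical Cmax (else 10 microM), diluted in half-log increments.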

[1] = second compound 0.0316 µM, first compound 0.0316 µM
[2] = second compound 0.0316 µM, first compound 0.1 µM
[3] = second compound 0.0316 µM, first compound 0.316 µM
[4] = second compound 0.0316 µM, first compound 1 µM
[5] = second compound 0.0316 µM, first compound 3.16 µM
[6] = second compound 0.0316 µM, first compound 10 µM
[7] = second compound 0.1 µM, first compound 0.0316 µM
[8] = second compound 0.1 µM, first compound 0.1 µM
[9] = second compound 0.1 µM, first compound 0.316 µM
[10] = second compound 0.1 µM, first compound 1 µM
[11] = second compound 0.1 µM, first compound 3.16 µM
[12] = second compound 0.1 µM, first compound 10 µM
[13] = second compound 0.316 µM, first compound 0.0316 µM
[14] = second compound 0.316 µM, first compound 0.1 µM
[15] = second compound 0.316 µM, first compound 0.316 µM
[16] = second compound 0.316 µM, first compound 1 µM
[17] = second compound 0.316 µM, first compound 3.16 µM
[18] = second compound 0.316 µM, first compound 10 µM
[19] = second compound 1 µM, first compound 0.0316 µM
[20] = second compound 1 µM, first compound 0.1 µM
[21] = second compound 1 µM, first compound 0.316 µM
[22] = second compound 1 µM, first compound 1 µM
[23] = second compound 1 µM, first compound 3.16 µM
[24] = second compound 1 µM, first compound 10 µM
[25] = second compound 3.16 µM, first compound 0.0316 µM
[26] = second compound 3.16 µM, first compound 0.1 µM
[27] = second compound 3.16 µM, first compound 0.316 µM
[28] = second compound 3.16 µM, first compound 1 µM
[29] = second compound 3.16 µM, first compound 3.16 µM
[30] = second compound 3.16 µM, first compound 10 µM
[31] = second compound 10 µM, first compound 0.0316 µM
[32] = second compound 10 µM, first compound 0.1 µM
[33] = second compound 10 µM, first compound 0.316 µM
[34] = second compound 10 µM, first compound 1 µM
[35] = second compound 10 µM, first compound 3.16 µM
[36] = second compound 10 µM, first compound 10 µM
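Note: spheroids exposed to compounds for one week before readout.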
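Throughout, for viability, T/C: percent viability relative to DMSO vehicle wells taken as 100%.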

For CC(=O)O[C@H]1C(=O)[C@@]2(C)[C@H]([C@H](OC(=O)c3ccccc3)[C@]3(O)C[C@H](OC(=O)[C@H](O)[C@@H](NC(=O)c4ccccc4)c4ccccc4)C(C)=C1C3(C)C)[C@]1(OC(C)=O)CO[C@@H]1C[C@@H]2O + Cc1[nH]c2ccc(F)cc2c1-c1nc2c3cccnc3c3ncccc3c2[nH]1, the IC50 (second compound 0.0316 µM) was < 31.6 nM, the IC50 (second compound 0.1 µM) was < 31.6 nM and the IC50 (second compound 0.316 µM) was < 31.6 nM. For the same compound, the IC50 (second compound 1 µM) was < 31.6 nM, the IC50 (second compound 3.16 µM) was < 31.6 nM and the IC50 (second compound 10 µM) was < 31.6 nM. The viability, T/C [1] was 45.6%, the viability, T/C [2] was 19.7% and the viability, T/C [3] was 15.5%. For the same compound, the viability, T/C [4] was 16.5%, the viability, T/C [5] was 13.9% and the viability, T/C [6] was 12.1%. The viability, T/C [7] was 46.6%, the viability, T/C [8] was 21.5% and the viability, T/C [9] was 12.2%. It also gave a viability, T/C [10] of 17.6%, a viability, T/C [11] of 15.1% and a viability, T/C [12] of 16.6%. For the same compound, the viability, T/C [13] was 40%, the viability, T/C [14] was 18.9% and the viability, T/C [15] was 16.8%. The viability, T/C [16] was 15.3%, the viability, T/C [17] was 13.7% and the viability, T/C [18] was 16.1%. The viability, T/C [19] was 32.9%, the viability, T/C [20] was 18% and the viability, T/C [21] was 17.2%. The viability, T/C [22] was 17.7%, the viability, T/C [23] was 16.1% and the viability, T/C [24] was 12.7%. For the same compound, the viability, T/C [25] was 20.1%, the viability, T/C [26] was 11% and the viability, T/C [27] was 12.4%. For the same compound, the viability, T/C [28] was 11.6%, the viability, T/C [29] was 10.7% and the viability, T/C [30] was 8.8%. It also gave a viability, T/C [31] of 27%, a viability, T/C [32] of 17.1% and a viability, T/C [33] of 15.2%. For the same compound, the viability, T/C [34] was 14.7%, the viability, T/C [35] was 12.7% and the viability, T/C [36] was 12.5%.
In the case of CC[C@@]1(O)C(=O)OCc2c1cc1n(c2=O)Cc2cc3c(CN(C)C)c(O)ccc3nc2-1 + Cc1cnc(CNC(=O)c2c(=O)c3ccc(N4CCCN(C)CC4)nc3n3c2sc2ccccc23)cn1, the IC50 (second compound 0.0316 µM) is reported as 35.5 nM, the IC50 (second compound 0.1 µM) is reported as 19 nM and the IC50 (second compound 0.316 µM) is reported as < 0.999 nM. The IC50 (second compound 1 µM) was < 0.999 nM, the IC50 (second compound 3.16 µM) was < 0.999 nM and the IC50 (second compound 10 µM) was < 0.999 nM. The viability, T/C (second compound 0.0316 µM, first compound 0.000999 µM) was 86.2%, the viability, T/C (second compound 0.0316 µM, first compound 0.00316 µM) was 93.8% and the viability, T/C (second compound 0.0316 µM, first compound 0.00999 µM) was 91.7%. For the same compound, the viability, T/C [1] was 53.3%, the viability, T/C (second compound 0.0316 µM, first compound 0.0999 µM) was 20.8% and the viability, T/C [3] was 15.8%. The viability, T/C (second compound 0.1 µM, first compound 0.000999 µM) was 71%, the viability, T/C (second compound 0.1 µM, first compound 0.00316 µM) was 80.7% and the viability, T/C (second compound 0.1 µM, first compound 0.00999 µM) was 78.1%. It also gave a viability, T/C [7] of 29%, a viability, T/C (second compound 0.1 µM, first compound 0.0999 µM) of 21.9% and a viability, T/C [9] of 12.8%. For the same compound, the viability, T/C (second compound 0.316 µM, first compound 0.000999 µM) was 43.5%, the viability, T/C (second compound 0.316 µM, first compound 0.00316 µM) was 52.9% and the viability, T/C (second compound 0.316 µM, first compound 0.00999 µM) was 28.2%. It also gave a viability, T/C [13] of 20.7%, a viability, T/C (second compound 0.316 µM, first compound 0.0999 µM) of 17.3% and a viability, T/C [15] of 9.62%. For the same compound, the viability, T/C (second compound 1 µM, first compound 0.000999 µM) was 35.7%, the viability, T/C (second compound 1 µM, first compound 0.00316 µM) was 28.2% and the viability, T/C (second compound 1 µM, first compound 0.00999 µM) was 25.6%. The viability, T/C [19] was 20.1%, the viability, T/C (second compound 1 µM, first compound 0.0999 µM) was 14.7% and the viability, T/C [21] was 15.3%. The viability, T/C (second compound 3.16 µM, first compound 0.000999 µM) was 39.7%, the viability, T/C (second compound 3.16 µM, first compound 0.00316 µM) was 37.8% and the viability, T/C (second compound 3.16 µM, first compound 0.00999 µM) was 16.1%. For the same compound, the viability, T/C [25] was 14.7%, the viability, T/C (second compound 3.16 µM, first compound 0.0999 µM) was 13.4% and the viability, T/C [27] was 7.16%. The viability, T/C (second compound 10 µM, first compound 0.000999 µM) was 28.9%, the viability, T/C (second compound 10 µM, first compound 0.00316 µM) was 30.3% and the viability, T/C (second compound 10 µM, first compound 0.00999 µM) was 45.9%. The viability, T/C [31] was 19.7%, the viability, T/C (second compound 10 µM, first compound 0.0999 µM) was 24% and the viability, T/C [33] was 12.2%.
Compound C#Cc1c(F)ccc2cc(O)cc(-c3ncc4c(N5CC6CCC(C5)N6)nc(OCC56CCCN5CC(F)C6)nc4c3F)c12 (stereo not drawn) + Cc1[nH]c2ccc(F)cc2c1-c1nc2c3cccnc3c3ncccc3c2[nH]1 has an IC50 (second compound 0.0316 µM) of 6330 nM, an IC50 (second compound 0.1 µM) of 5600 nM and an IC50 (second compound 0.316 µM) of 4530 nM. For the same compound, the IC50 (second compound 1 µM) was 3280 nM, the IC50 (second compound 3.16 µM) was < 31.6 nM and the IC50 (second compound 10 µM) was 1360 nM. It also gave a viability, T/C [1] of 109%, a viability, T/C [2] of 92.8% and a viability, T/C [3] of 97.8%. The viability, T/C [4] was 99%, the viability, T/C [5] was 82.2% and the viability, T/C [6] was 28.6%. For the same compound, the viability, T/C [7] was 90.9%, the viability, T/C [8] was 106% and the viability, T/C [9] was 94.9%. The viability, T/C [10] was 108%, the viability, T/C [11] was 75.6% and the viability, T/C [12] was 23.9%. The viability, T/C [13] was 80.3%, the viability, T/C [14] was 58.9% and the viability, T/C [15] was 79.3%. The viability, T/C [16] was 59.2%, the viability, T/C [17] was 72.5% and the viability, T/C [18] was 6%. It also gave a viability, T/C [19] of 66.5%, a viability, T/C [20] of 52.8% and a viability, T/C [21] of 64.2%. For the same compound, the viability, T/C [22] was 54.2%, the viability, T/C [23] was 52.5% and the viability, T/C [24] was 3%. For the same compound, the viability, T/C [25] was 46.6%, the viability, T/C [26] was 36.7% and the viability, T/C [27] was 35.3%. It also gave a viability, T/C [28] of 33.7%, a viability, T/C [29] of 35.2% and a viability, T/C [30] of 0.12%. The viability, T/C [31] was 47.8%, the viability, T/C [32] was 60.2% and the viability, T/C [33] was 55.2%. It also gave a viability, T/C [34] of 52.9%, a viability, T/C [35] of 42% and a viability, T/C [36] of 0.16%.
CCCS(=O)(=O)Nc1ccc(F)c(C(=O)c2c[nH]c3ncc(-c4ccc(Cl)cc4)cc23)c1F + Cc1[nH]c2ccc(F)cc2c1-c1nc2c3cccnc3c3ncccc3c2[nH]1 gave an IC50 (second compound 0.0316 µM) of 2610 nM, an IC50 (second compound 0.1 µM) of 2610 nM and an IC50 (second compound 0.316 µM) of 1760 nM. For the same compound, the IC50 (second compound 1 µM) was 343 nM, the IC50 (second compound 3.16 µM) was < 31.6 nM and the IC50 (second compound 10 µM) was < 31.6 nM. The viability, T/C [1] was 110%, the viability, T/C [2] was 103% and the viability, T/C [3] was 95.6%. The viability, T/C [4] was 89.2%, the viability, T/C [5] was 41.7% and the viability, T/C [6] was 14.3%. The viability, T/C [7] was 95.5%, the viability, T/C [8] was 88.3% and the viability, T/C [9] was 83.5%. For the same compound, the viability, T/C [10] was 94.3%, the viability, T/C [11] was 41.9% and the viability, T/C [12] was 14%. For the same compound, the viability, T/C [13] was 73.5%, the viability, T/C [14] was 72.5% and the viability, T/C [15] was 67.1%. For the same compound, the viability, T/C [16] was 67.8%, the viability, T/C [17] was 31.7% and the viability, T/C [18] was 10.3%. It also gave a viability, T/C [19] of 62.1%, a viability, T/C [20] of 61% and a viability, T/C [21] of 41.5%. It also gave a viability, T/C [22] of 41.6%, a viability, T/C [23] of 37.7% and a viability, T/C [24] of 11.3%. For the same compound, the viability, T/C [25] was 46%, the viability, T/C [26] was 26.5% and the viability, T/C [27] was 30.2%. For the same compound, the viability, T/C [28] was 19.9%, the viability, T/C [29] was 15.9% and the viability, T/C [30] was 5.4%. For the same compound, the viability, T/C [31] was 40.7%, the viability, T/C [32] was 47.5% and the viability, T/C [33] was 42.4%. It also gave a viability, T/C [34] of 49.3%, a viability, T/C [35] of 25.3% and a viability, T/C [36] of 6.95%.
